From patent US11345710B2, “Imidazo[1,2-b]pyrimido[4,5-d]pyridazin-5(6H)-ones and the use thereof” (IMPACT THERAPEUTICS (SHANGHAI), INC, priority 2017, dated 2022)
Where two headings read alike, the source gives them in different places.

Legend:
[1] = molecular target: Wee1 kinase (h) (Homo sapiens, UniProt P30291); experiment: Wee1 kinase (h) detection method, [γ-33P]-ATP filter assay; assay type: biochemical; settings: 10 μM ATP, 40 minutes at room temperature
Experimental: Wee1 kinase (h) was incubated with 20 mM Tris/HCl pH 8.5, 0.2 mM EDTA, 500 μM […], 10 mM MgAcetate and 10 μM [γ-^33P]-ATP. Then the stock solution of all compounds under test with 50× concentration in 100% DMSO was added to make the final concentration of 1/0.1/0.01 μM, and then mixed the mixture well. The reaction was initiated by the addition of the Mg/ATP mix. After incubation for 40 minutes at room temperature, the reaction was stopped by the addition of phosphoric acid to a concentration of 0.5%. 10 μL of the reaction liquor was then spotted onto a P30 filtermat and washed four times in 0.425% phosphoric acid and once in methanol prior to drying and scintillation counting. Each compound sample was duplicated in duplicate. The negative control was lack of all the components of Wee1 enzyme, and the positive was addition of 30% phosphoric acid to terminate the reaction. The Wee1 inhibitor AZD1775 was detected at 10/0.01 μM at the same experiment condition.

[2] = system: LoVo cells; experiment: MTT based cell viability assay on LoVo cells; settings: Homo sapiens, 72 h, read-out: IC50, growth inhibition on LoVo cells
Experimental: Determination of the Cell Growth Inhibiting Activity of 6-(2,6-dichlorophenyl)-2-((4-(4-methylpiperazin-1-yl)phenyl)amino)imidazo[1,2-b]pyrimido[4,5-d]pyridazin-5(6H)-one and Analogs Thereof on LoVo Cells Using a MTT Based Cell Viability Assay
The thawed LoVo cells were cultured and passaged to the third generation, and the growth state was good and the confluence was about 90%, which began to be used in the experiment. The LoVo cells were digested with trypsin, centrifuged at 800 rpm for 5 min, the supernatant was discarded, resuspended with fresh culture medium, and counted. 6000 Cells are seeded to each well of a 96-well cell culture plate. The cells were incubated at 37° C. in a 5% CO2 cell culture incubator overnight. The tested sample (including the tested compound and the reference compound AZD1775) was diluted continuously to 8 concentrations (the last concentration was negative control of DMSO) with a 1:3 and 1:10 dilution in DMSO respectively: 10 μM, 3.3 μM, 1 μM, 0.33 μM, 0.1 μM, 0.033 μM, 0.01 μM, 0 μM (the final concentration of DMSO was 1%). 5 μL of each concentration was added to 120 μL of culture medium (25 times diluted), and the mixture was shaken well. The overnight cells were taken and the culture medium was removed, 195 μL of fresh culture medium was added to each well, and 5 μL of diluted culture medium containing the corresponding concentration of the tested sample was added respectively, and the culture plate was then placed in the 5% CO2 cell culture incubator at 37° C. for 3 d. After removing the original solution and adding 100 μL of fresh serum-free DMEM culture medium containing MTT (0.5 mg/mL) per well, the culture was continued. The original solution was removed after 4 hrs and 100 μl DMSO was added to each well. The 96-well cell culture plates were shaken away from light for 10 min and readed in a multifunctional reader at 552/630/690 nm to give absorption values (OD values). The data were analyzed using a graphic software (Graph Pad Prism 5.0) and the inhibitory activity of the compound on cell proliferation was plotted in terms of cell survival and compound concentration. The IC50 values were fitted by the S-shaped dose-response curve equation as follows: Y=100/(1+10^(Log C−Log IC50)), where C was the concentration of testing compounds.

[3] = system: NCI-H1299 cells; experiment: MTT based cell viability assay on NCI-H1299 cells; settings: Homo sapiens, read-out: IC50, growth inhibition on NCI-H1299 cells
Experimental: Determination of the Cell Growth Inhibiting Activity of 6-(2,6-dichlorophenyl)-2-((4-(4-methylpiperazin-1-yl)phenyl)amino)imidazo[1,2-b]pyrimido[4,5-d]pyridazin-5(6H)-one and Analogs on NCI-H1299 Cells Using a MTT Based Cell Viability Assay
The thawed NCI-H1299 cells were cultured and passaged to the third generation, and the growth state was good and the confluence was about 90%, which began to be used in the experiment. The NCI-H1299 cells were digested with trypsin, centrifuged at 800 rpm for 5 min, the supernatant was discarded, resuspended with fresh culture medium, and counted. 1000 Cells are seeded to each well of a 96-well plate. The cells are incubated at 37° C. in a 5% CO2 cell culture incubator overnight. The tested sample (including the tested compound and the reference compound AZD1775) was diluted continuously to 8 concentrations (the last concentration was negative control of DMSO) with a 1:3 and 1:10 dilution in DMSO respectively: 10 μM, 3.3 μM, 1 μM, 0.33 μM, 0.1 μM, 0.033 μM, 0.01 μM, 0 μM (the final concentration of DMSO was 1%). 5 μL of each concentration was added to 120 μL of culture medium (25 times diluted), and the mixture was shaken well. The overnight cells were taken and the culture medium was removed, 195 μL of fresh culture medium was added to each well, and 5 μL of diluted culture medium containing the corresponding concentration of the tested sample was added respectively, and the culture plate was then placed in the 5% CO2 cell culture incubator at 37° C. for 3 d. After removing the original solution and adding 100 μL of fresh serum-free DMEM culture medium containing MTT (0.5 mg/mL) per well, the culture was continued. The original solution was removed after 4 hrs and 100 μl DMSO was added to each well. The 96-well cell culture plates were shaken away from light for 10 min and readed in a multifunctional reader at 552/630/690 nm to give absorption values (OD values). The data were analyzed using a graphic software (Graph Pad Prism 5.0) and the inhibitory activity of the compound on cell proliferation was plotted in terms of cell survival and compound concentration. The IC50 values were fitted by the S-shaped dose-response curve equation as follows: Y=100/(1+10^(Log C−Log IC50)), where C was the concentration of testing compounds.

[4] = 72 h, NCI-H1299 cells, 3 d, MTT

Wee1 kinase (h), sequence (P30291 whole entry): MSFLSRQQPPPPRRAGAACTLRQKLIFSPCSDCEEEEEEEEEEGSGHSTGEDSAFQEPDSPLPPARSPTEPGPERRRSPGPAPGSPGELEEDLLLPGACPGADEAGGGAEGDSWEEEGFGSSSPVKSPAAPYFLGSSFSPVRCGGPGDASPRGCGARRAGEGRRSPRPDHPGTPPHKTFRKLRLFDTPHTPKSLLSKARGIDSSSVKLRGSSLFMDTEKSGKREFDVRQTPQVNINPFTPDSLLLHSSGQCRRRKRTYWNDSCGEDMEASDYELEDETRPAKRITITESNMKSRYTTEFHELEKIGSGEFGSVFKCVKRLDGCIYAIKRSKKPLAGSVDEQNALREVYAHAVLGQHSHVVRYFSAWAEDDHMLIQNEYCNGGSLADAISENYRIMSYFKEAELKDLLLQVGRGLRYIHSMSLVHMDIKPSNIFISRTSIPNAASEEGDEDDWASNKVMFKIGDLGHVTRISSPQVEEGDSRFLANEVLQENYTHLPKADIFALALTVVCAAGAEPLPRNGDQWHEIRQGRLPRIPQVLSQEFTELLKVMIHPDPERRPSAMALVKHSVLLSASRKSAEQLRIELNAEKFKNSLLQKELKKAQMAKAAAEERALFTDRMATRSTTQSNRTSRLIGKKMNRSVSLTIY

SMILES	Inh. (%) of Wee1 kinase ([1]; C 1 μm)	IC50 ([2]; LoVo cells, 3 d, MTT)	IC50 [3, 4]	Inh. (%) of Wee1 kinase ([1]; C 0.01 μm)	IC50 ([2]; LoVo)	IC50 ([3]; NCI-H1299, 72 h)	Inh. (%) of Wee1 kinase ([1]; C 0.1 μm)
Cc1cc(Nc2ncc3c(=O)n(-c4c(F)cccc4Cl)n4ccnc4c3n2)cc(Cl)c1N1CCN(C)CC1 [Example 23, 6-(2-chloro-6-fluorophenyl)-2-((3-chloro-5-methyl-4-(4-methylpiperazin-1-yl)phenyl)amino)imidazo[1,2-b]pyrimido[4,5-d]pyridazin-5(6H)-one]	91%	195 nM	528 nM				
Cc1cc(Nc2ncc3c(=O)n(-c4c(Cl)cccc4Cl)n4ccnc4c3n2)ccc1N1CCNCC1 [Example 26, 6-(2,6-dichlorophenyl)-2-((3-methyl-4-(piperazin-1-yl)phenyl)amino)imidazo[1,2-b]pyrimido[4,5-d]pyridazin-5(6H)-one]				27%	201 nM	268 nM	
CCc1cn2c(n1)c1nc(Nc3ccc(N4CCN(C)CC4)c(C)c3)ncc1c(=O)n2-c1c(Cl)cccc1Cl [Example 60, 6-(2,6-dichlorophenyl)-2-((3-methyl-4-(4-methylpiperazin-1-yl)phenyl)amino)-9-ethylimidazo[1,2-b]pyrimido[4,5-d]pyridazin-5(6H)-one]		325 nM	161 nM				
CN1Cc2cc(Nc3ncc4c(=O)n(-c5c(F)cccc5Cl)n5ccnc5c4n3)ccc2C(C)(C)C1 [Example 12, 6-(2-chloro-6-fluorophenyl)-2-((2,4,4-trimethyl-1,2,3,4-tetrahydroisoquinolin-7-yl)amino)imidazo[1,2-b]pyrimido[4,5-d]pyridazin-5(6H)-one]	96%	818 nM	445 nM				
Cc1cc(Nc2ncc3c(=O)n(-c4c(F)cccc4F)n4ccnc4c3n2)ccc1N1CCN(C)CC1 [Example 2, 6-(2,6-difluorophenyl)-2-((3-methyl-4-(4-methylpiperazin-1-yl)phenyl)amino)imidazo[1,2-b]pyrimido[4,5-d]pyridazin-5(6H)-one]	93%	406 nM	652 nM				
CN1CCN(c2ccc(Nc3ncc4c(=O)n(-c5c(F)cccc5Cl)n5ccnc5c4n3)cc2Cl)CC1 [Example 21, 6-(2-chloro-6-fluorophenyl)-2-((3-chloro-4-(4-methylpiperazin-1-yl)phenyl)amino)imidazo[1,2-b]pyrimido[4,5-d]pyridazin-5(6H)-one]	95%	259 nM	511 nM				
Cc1cc(Nc2ncc3c(=O)n(-c4c(C)cccc4Cl)n4ccnc4c3n2)cc(C)c1N1CCN(C)CC1 [Example 17, 6-(2-chloro-6-methylphenyl)-2-((3,5-dimethyl-4-(4-methylpiperazin-1-yl)phenyl)amino)imidazo[1,2-b]pyrimido[4,5-d]pyridazin-5(6H)-one]	96%	902 nM	802 nM	5%			56%
Cc1cc(Nc2ncc3c(=O)n(-c4c(F)cccc4Br)n4ccnc4c3n2)ccc1N1CCC(N(C)C)CC1 [Example 45, 6-(2-bromo-6-fluorophenyl)-2-((3-methyl-4-(4-(dimethylamino)piperidin-1-yl)phenyl)amino)imidazo[1,2-b]pyrimido[4,5-d]pyridazin-5(6H)-one]		333 nM	270 nM	12%			
Cc1cccc(F)c1-n1c(=O)c2cnc(Nc3ccc(N4CCN(C)CC4)c(Cl)c3)nc2c2nccn21 [Example 51, 6-(2-fluoro-6-methylphenyl)-2-((3-chloro-4-(4-methylpiperazin-1-yl)phenyl)amino)imidazo[1,2-b]pyrimido[4,5-d]pyridazin-5(6H)-one]	88%	998 nM	1220 nM				
Cc1cc(Nc2ncc3c(=O)n(-c4c(Cl)cccc4Cl)n4ccnc4c3n2)ccc1N1C[C@@H](C)N(C)[C@@H](C)C1 [Example 33, 6-(2,6-dichlorophenyl)-2-((3-methyl-4-((3S,5R)-3,4,5-trimethylpiperazin-1-yl)phenyl)amino)imidazo[1,2-b]pyrimido[4,5-d]pyridazin-5(6H)-one]					394 nM	237 nM	
C[C@@H]1CN(c2ccc(Nc3ncc4c(=O)n(-c5c(Cl)cccc5Cl)n5ccnc5c4n3)cc2F)C[C@H](C)N1C [Example 31, 6-(2,6-dichlorophenyl)-2-((3-fluoro-4-((3S,5R)-3,4,5-trimethylpiperazin-1-yl)phenyl)amino)imidazo[1,2-b]pyrimido[4,5-d]pyridazin-5(6H)-one]					809 nM	672 nM	
C[C@@H]1CN(c2ccc(Nc3ncc4c(=O)n(-c5c(Cl)cccc5Cl)n5ccnc5c4n3)cc2Cl)C[C@H](C)N1C [Example 32, 6-(2,6-dichlorophenyl)-2-((3-chloro-4-((3S,5R)-3,4,5-trimethylpiperazin-1-yl)phenyl)amino)imidazo[1,2-b]pyrimido[4,5-d]pyridazin-5(6H)-one]					679 nM	515 nM	
Cc1cc(Nc2ncc3c(=O)n(-c4c(F)cccc4Cl)n4ccnc4c3n2)ccc1N1C[C@@H](C)N(C)[C@@H](C)C1 [Example 24, 6-(2-chloro-6-fluorophenyl)-2-((3-methyl-4-((3S,5R)-3,4,5-trimethylpiperazin-1-yl)phenyl)amino)imidazo[1,2-b]pyrimido[4,5-d]pyridazin-5(6H)-one]		359 nM	328 nM				
Cc1cc(Nc2ncc3c(=O)n(-c4c(Cl)cccc4Cl)n4ccnc4c3n2)ccc1C1CCN(C)CC1 [Example 41, 6-(2,6-dichlorophenyl)-2-((3-methyl-4-(1-methylpiperidin-4-yl)phenyl)amino)imidazo[1,2-b]pyrimido[4,5-d]pyridazin-5(6H)-one]					212 nM	184 nM	
C[C@@H]1CN(c2ccc(Nc3ncc4c(=O)n(-c5c(Cl)cccc5Cl)n5ccnc5c4n3)cc2)C[C@H](C)N1C [Example 30, 6-(2,6-dichlorophenyl)-2-((4-((3S,5R)-3,4,5-trimethylpiperazin-1-yl)phenyl)amino)imidazo[1,2-b]pyrimido[4,5-d]pyridazin-5(6H)-one]					779 nM	508 nM	
